Reference: patent US10941157B2, “Pesticidal compositions and uses thereof” (Gilead Apollo, LLC, priority 2015, dated 2021)
≈ marks a conversion by molar mass, not a printed value.

Tests used:
[1] = system: Fusarium moniliforme (Fm); assay: In vitro pathogen growth inhibition assay, Fm; assay type: cell-based; settings: Fusarium verticillioides; ≥90% growth inhibition; 48 hours; vs 2% DMSO control; read-out: Compound Concentration (ppm) sufficient for ≥90% inhibition of Fm
Procedure, shortened: (§1)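 Value reported is the compound concentration reaching ≥90% growth inhibition, from OD readings at 24 and 48 h after blank subtraction, confirmed visually. Inoculum was spores diluted in 17% V8 medium, except Rs, using 1.5 mm mycelial plugs in ¼ PDB; actual compound concentration corrected via OD600.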

[2] = system: Blumeria graminis f. sp. hordei; assay: Foliar protection test for barley powdery mildew control; assay type: in vivo; settings: foliar spray on Hordeum vulgare cv. Perry, inoculated 24 hours after treatment, evaluated 7 days later
Procedure, shortened: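 Protective foliar test: compound atomized onto both leaf surfaces of 6-day-old Hordeum vulgare cv. Perry, followed after 24 h by spore-cloud inoculation from colonized untreated plants. Disease rated on leaves 7 days on, plants held at 20 to 22° C and 70% RH.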

Phakopsora pachyrhizi = assay: Foliar protection test for Asian soybean rust control; assay type: in vivo; settings: foliar application to soybean (Glycine max AG4832), percent disease area evaluated 14 days later
Rhizoctonia solani (Rs) = assay: In vitro pathogen growth inhibition assay, Rs (mycelial plugs); assay type: cell-based; settings: Rhizoctonia solani, 48 h, ≥90% growth inhibition; mycelial plugs; 48 hours; vs 2% DMSO control; read-out: Compound Concentration (ppm) sufficient for ≥90% inhibition of Rs
Procedure, shortened: (§2)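 Spores of Dm, Fv and Pc were diluted in 17% V8 liquid medium; Rs used 1.5 mm mycelial plugs in ¼ PDB. Compounds from 2.5 mg/ml DMSO stocks were combined with inoculum, growth was read by OD600 at 24 and 48 h with blank subtraction, and the reported value is the concentration giving ≥90% inhibition.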

Fusarium graminearum = assay type: in vivo; settings: spray on flowering Triticum aestivum cv. Samson, inoculated 24 hours after treatment, evaluated 14 days later
[3] = system: Phytophthora capsici (Pc); assay: In vitro pathogen growth inhibition assay, Pc; assay type: cell-based; settings: 48 h, ≥90% growth inhibition, 48 hours, vs 2% DMSO control, read-out: Compound Concentration (ppm) sufficient for ≥90% inhibition of Pc
Procedure, shortened: as §2

Botrtyis cinerea (Bc) = assay: In vitro pathogen growth inhibition assay, Bc; assay type: cell-based; settings: 48 h, ≥90% growth inhibition; 48 hours; vs 2% DMSO control; read-out: Compound Concentration (ppm) sufficient for ≥90% inhibition of Bc
Procedure, shortened: as §1

Puccinia triticina = assay: Foliar protection test for wheat leaf rust control; assay type: in vivo; settings: foliar application to wheat (Triticum aestivum cv. Winterhawk), evaluated 10 days later
Septoria tritici (St) = assay: In vitro pathogen growth inhibition assay, St; assay type: cell-based; settings: Zymoseptoria tritici, 48 h, ≥90% growth inhibition; 48 hours; vs 2% DMSO control; read-out: Compound Concentration (ppm) sufficient for ≥90% inhibition of St
Procedure, shortened: as §1

[4] = system: Collectotrichum graminicola (Cg); assay: In vitro pathogen growth inhibition assay, Cg; assay type: cell-based; settings: 48 h, ≥90% growth inhibition; 48 hours; vs 2% DMSO control; read-out: Compound Concentration (ppm) sufficient for ≥90% inhibition of Cg
Procedure, shortened: as §1

Diplodia maydis (Dm) = assay: In vitro pathogen growth inhibition assay, Dm; assay type: cell-based; settings: Stenocarpella maydis, 48 h, ≥90% growth inhibition; 48 hours; vs 2% DMSO control; read-out: Compound Concentration (ppm) sufficient for ≥90% inhibition of Dm
Procedure, shortened: as §2

Sphaerotheca fuliginea = assay: Foliar protection for cucumber powdery mildew control; assay type: in vivo; settings: foliar spray on Cucumis sativus cv. Straight Eight, inoculated 24 hours after treatment, evaluated 7 days later
Procedure, shortened: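 Protective foliar spray on 10-day-old Straight Eight cucumbers, with S. fuliginea spores dusted from infected stock plants 24 h after treatment. Disease developed at 23–27 °C, 60% RH and a 16 h photoperiod. Leaves were rated for mildew growth after 7 days; test rates 10 ppm or below.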

[5] = system: Fusarium virguliforme (Fv); assay: In vitro pathogen growth inhibition assay, Fv; assay type: cell-based; settings: ≥90% growth inhibition, 48 hours, vs 2% DMSO control, read-out: Compound Concentration (ppm) sufficient for ≥90% inhibition of Fv
Procedure, shortened: as §2

[6] = system: Mycosphaerella graminicola (synthetic Septoria tritici); assay: Foliar protection test for wheat septoria leaf blotch control; assay type: in vivo; settings: foliar spray on Triticum aestivum cv. WinterHawk, inoculated 1 hour after treatment, evaluated 16 days later

SMILES	IC90 [1] [µg/mL]	Barley Powdery Mildew Control at a compound concentration of 10 ppm or lower [2]	Asian Soybean Rust Control at a compound concentration of 25 ppm or lower (Phakopsora pachyrhizi)	IC90 (Rhizoctonia solani (Rs)) [µg/mL]	Wheat Fusarium Head Blight Control at a compound concentration of 25 ppm or lower (Fusarium graminearum)	IC90 [3] [µg/mL]	IC90 (Botrtyis cinerea (Bc)) [µg/mL]	Wheat Leaf Rust Control at a compound concentration of 10 ppm or lower (Puccinia triticina)	IC90 (Septoria tritici (St)) [µg/mL]	IC90 [4] [µg/mL]	IC90 (Diplodia maydis (Dm)) [µg/mL]	Cucumber Powdery Mildew Control at a compound concentration of 10 ppm or lower (Sphaerotheca fuliginea)	IC90 [5] [µg/mL]	Septoria Leaf Blotch Control at a compound concentration of 25 ppm or lower [6]
CCOC(=O)c1sc2c(c1C)c(=O)n(C(C)(C)C(=O)NC(C)C)c(=O)n2C[C@H](OCC#N)c1cc(F)ccc1OC [Compound I-251, (R)-ethyl-1-(2-(cyanomethoxy)-2-(5-fluoro-2-methoxyphenyl)ethyl)-3-(1-(isopropylamino)-2-methyl-1-oxopropan-2-yl)-5-methyl-2,4-dioxo-1,2,3,4-tetrahydrothieno[2,3-d]pyrimidine-6-carboxylate]	0.08 (≈ 0.136 µM)	AA (≥85% control of barley powdery mildew)	C (from 25 to 49% control of Asian soybean rust)	0.4 (≈ 0.68 µM)	C (from 25 to 49% control of wheat fusarium head blight)	> 50	0.4 (≈ 0.68 µM)	D (<25% control of wheat leaf rust)	> 10	2 (≈ 3.4 µM)	2 (≈ 3.4 µM)	AA (≥85% control of cucumber powdery mildew)	0.4 (≈ 0.68 µM)	C (from 25 to 49% control of wheat septoria leaf blotch)
CCOC(=O)c1sc2c(c1C)c(=O)n(C(C)(C)C(=O)NC(C)C)c(=O)n2C[C@H](OC[C@@H](C)C#N)c1cc(F)ccc1OC [Compound I-258, (R)-ethyl-1-(2-((S)-2-cyanopropoxy)-2-(5-fluoro-2-methoxyphenyl)ethyl)-3-(1-(isopropylamino)-2-methyl-1-oxopropan-2-yl)-5-methyl-2,4-dioxo-1,2,3,4-tetrahydrothieno[2,3-d]pyrimidine-6-carboxylate]	0.08 (≈ 0.13 µM)	A (from 70% to 84% control of barley powdery mildew)	C (from 25 to 49% control of Asian soybean rust)	0.08 (≈ 0.13 µM)	C (from 25 to 49% control of wheat fusarium head blight)	≥ 10	0.4 (≈ 0.649 µM)	A (from 70% to 84% control of wheat leaf rust)	≥ 2	0.08 (≈ 0.13 µM)	0.4 (≈ 0.649 µM)	AA (≥85% control of cucumber powdery mildew)	0.4 (≈ 0.649 µM)	B (from 50 to 69% control of wheat septoria leaf blotch)
CCOC(=O)c1sc2c(c1C)c(=O)n(C(C)(C)C(=O)NC(C)C)c(=O)n2C[C@H](OC[C@H](C)C#N)c1cc(F)ccc1OC [Compound I-259, (R)-ethyl-1-(2-((R)-2-cyanopropoxy)-2-(5-fluoro-2-methoxyphenyl)ethyl)-3-(1-(isopropylamino)-2-methyl-1-oxopropan-2-yl)-5-methyl-2,4-dioxo-1,2,3,4-tetrahydrothieno[2,3-d]pyrimidine-6-carboxylate]	0.08 (≈ 0.13 µM)	A (from 70% to 84% control of barley powdery mildew)	B (from 50 to 69% control of Asian soybean rust)	0.08 (≈ 0.13 µM)	B (from 50 to 69% control of wheat fusarium head blight)	> 50	0.4 (≈ 0.649 µM)	C (from 25 to 49% control of wheat leaf rust)	> 10	0.08 (≈ 0.13 µM)	0.4 (≈ 0.649 µM)	AA (≥85% control of cucumber powdery mildew)	0.4 (≈ 0.649 µM)	C (from 25 to 49% control of wheat septoria leaf blotch)
COc1ccc(F)cc1[C@H](Cn1c(=O)n(C(C)(C)C(=O)NC(C)C)c(=O)c2c(C)c(-n3cccn3)sc21)OC[C@@H](C)C#N [Compound I-262, 2-(1-((R)-2-((S)-2-cyanopropoxy)-2-(5-fluoro-2-methoxyphenyl)ethyl)-5-methyl-2,4-dioxo-6-(1H-pyrazol-1-yl)-1,4-dihydrothieno[2,3-d]pyrimidin-3 (2H)-yl)-N-isopropyl-2-methylpropanamide]	≥ 0.08	A (from 70% to 84% control of barley powdery mildew)	AA (≥85% control of Asian soybean rust)	0.08 (≈ 0.131 µM)	B (from 50 to 69% control of wheat fusarium head blight)	≥ 10	0.4 (≈ 0.655 µM)	AA (≥85% control of wheat leaf rust)	≥ 2	0.08 (≈ 0.131 µM)	2 (≈ 3.27 µM)	AA (≥85% control of cucumber powdery mildew)	0.4 (≈ 0.655 µM)	AA (≥85% control of wheat septoria leaf blotch)
COc1ccc(F)cc1[C@H](Cn1c(=O)n(C(C)(C)C(=O)NC(C)C)c(=O)c2c(C)c(-n3cccn3)sc21)OC[C@H](C)C#N [Compound I-263, 2-(1-((R)-2-((R)-2-cyanopropoxy)-2-(5-fluoro-2-methoxyphenyl)ethyl)-5-methyl-2,4-dioxo-6-(1H-pyrazol-1-yl)-1,4-dihydrothieno[2,3-d]pyrimidin-3 (2H)-yl)-N-isopropyl-2-methylpropanamide]	≥ 0.08	A (from 70% to 84% control of barley powdery mildew)	AA (≥85% control of Asian soybean rust)	0.4 (≈ 0.655 µM)	B (from 50 to 69% control of wheat fusarium head blight)	≥ 50	0.4 (≈ 0.655 µM)	AA (≥85% control of wheat leaf rust)	> 10	0.4 (≈ 0.655 µM)	2 (≈ 3.27 µM)	AA (≥85% control of cucumber powdery mildew)	0.4 (≈ 0.655 µM)	D (<25% control of wheat septoria leaf blotch)
